Assay results: US7659271B2, “Pyrimidine compound having dibenzylamine structure and medicament comprising the same” (Kowa Company, Ltd., priority 2007, dated 2010)

Target: T1, CETP (Homo sapiens, UniProt P11597)
T1 construct: The CETP activity in this plasma was measured with Cholesteryl Ester Transfer Protein Activity kit; from tissue; host or cells: human plasma
T1 sequence (P11597 18-493): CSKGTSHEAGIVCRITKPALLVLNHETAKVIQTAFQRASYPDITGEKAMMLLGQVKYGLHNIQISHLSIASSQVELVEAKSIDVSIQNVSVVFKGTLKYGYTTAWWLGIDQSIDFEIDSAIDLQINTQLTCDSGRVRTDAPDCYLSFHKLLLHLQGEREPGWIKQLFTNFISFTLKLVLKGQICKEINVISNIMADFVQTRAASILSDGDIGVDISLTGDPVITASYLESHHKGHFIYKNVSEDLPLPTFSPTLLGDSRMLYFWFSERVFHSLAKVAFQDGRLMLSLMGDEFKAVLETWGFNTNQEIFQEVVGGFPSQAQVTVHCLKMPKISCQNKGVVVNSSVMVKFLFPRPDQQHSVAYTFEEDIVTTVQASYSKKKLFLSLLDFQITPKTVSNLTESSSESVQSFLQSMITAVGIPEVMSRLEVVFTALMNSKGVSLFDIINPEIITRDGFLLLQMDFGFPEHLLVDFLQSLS
Experiment: Measurement of CETP inhibitory action in human plasma
Format: biochemical
Conditions: incubated with compound 37° C. 4 hours, Roar Biomedical CETP Activity kit, read-out: IC50 (concentration inhibiting the CETP activity by 50%)
Description: A solution obtained by dissolving an exemplary compound in polyethylene glycol/N-methyl-2-pyrrolidone (vol/vol=1/1) was added to human plasma, and the mixture was incubated in an incubator at 37° C. for 4 hours. The CETP activity in this plasma was measured with Cholesteryl Ester Transfer Protein Activity kit (Roar Biomedical, catalog No.: RB-CETP). Specifically, to each well of a 96-well plate, 95 μL of a buffer (10 mM Tris, 150 mM NaCl, 2 mM EDTA, pH 7.4), 2 μL of Donor particle and 2 μL of Acceptor particle were added, 1 μL of the human plasma after the incubation was added to the mixture, and the mixture was incubated in an incubator at 37° C. for 2 hours. After completion of the incubation, fluorescence intensity (FLU) was measured with a fluorescence plate reader (excitation wavelength: 465 nm, emission wavelength: 535 nm). In accordance with the following equation 1, the CETP activity (% of control) was obtained for the compounds of the examples for two or more concentrations. CETP activity (% of control)=(Sample FLU−Blank FLU)×100/(Control FLU−Blank FLU) (Equation 1)
In the equation, the terms have the following meanings: […]
Blank FLU: Fluorescence intensity of sample not added with plasma
Control FLU: Fluorescence intensity of plasma not added with solution of compound
Sample FLU: Fluorescence intensity of plasma added with solution of compound
A value obtained by subtracting the value of the CETP activity from 100 was defined as the CETP inhibitory rate of each exemplary compound, and a concentration inhibiting the CETP activity by 50% (IC50) was calculated for each exemplary compound from the values of the CETP inhibitory rate at two or more concentrations.

Row | SMILES | IC50 [nM]
1 | CCN(CC1CCCC1)c1cc(F)ccc1CN(c1ncc(OCCS(C)(=O)=O)cn1)C(C)c1cc(C(F)(F)F)cc(C(F)(F)F)c1 (centres unmarked) [Example 11, N-{1-[3,5-bis(trifluoromethyl)phenyl]ethyl}-N-({2-[(cyclopentylmethyl)(ethyl)amino]-4-fluorophenyl}methyl)-5-[2-(methylsulfonyl)ethoxy]pyrimidin-2-amine] | 250
2 | CCN(CC1CCCC1)c1cc(OC)ccc1CN(c1ncc(OCCS(C)(=O)=O)cn1)C(C)c1cc(C(F)(F)F)cc(C(F)(F)F)c1 (centres unmarked) [Example 13, N-{1-[3,5-bis(trifluoromethyl)phenyl]ethyl}-N-({2-[(cyclopentylmethyl)(ethyl)amino]-4-methoxyphenyl}methyl)-5-[2-(methylsulfonyl)ethoxy]pyrimidin-2-amine] | 100
3 | CCN(CC1CCCC1)c1cc(C(F)(F)F)ccc1CN(c1ncc(OCC[S+](C)[O-])cn1)C(C)c1cc(C(F)(F)F)cc(C(F)(F)F)c1 (centres unmarked) [Example 15, N-{1-[3,5-bis(trifluoromethyl)phenyl]ethyl}-N-({2-[(cyclopentylmethyl)(ethyl)amino]-4-(trifluoromethyl)phenyl}methyl)-5-[2-(methylsulfinyl)ethoxy]pyrimidin-2-amine] | 300
4 | CC(c1cc(C(F)(F)F)cc(C(F)(F)F)c1)N(Cc1cc(F)cc(F)c1N(CC1CC1)CC1CC1)c1ncc(OCCS(C)(=O)=O)cn1 (centres unmarked) [Example 47, N-({2-[bis(cyclopropylmethyl)amino]-3,5-difluorophenyl}methyl)-N-{1-[3,5-bis(trifluoromethyl)phenyl]ethyl}-5-[2-(methylsulfonyl)ethoxy]pyrimidin-2-amine] | 400
5 | CCN(CC1CCCC1)c1ccc(F)cc1CN(c1ncc(OCCS(C)(=O)=O)cn1)C(C)c1cc(C(F)(F)F)cc(C(F)(F)F)c1 (centres unmarked) [Example 26, N-{1-[3,5-bis(trifluoromethyl)phenyl]ethyl}-N-({2-[(cyclopentylmethyl)(ethyl)amino]-5-fluorophenyl}methyl)-5-[2-(methylsulfonyl)ethoxy]pyrimidin-2-amine] | 250
6 | CCN(CC1CCCC1)c1cc(C(F)(F)F)ccc1CN(c1ncc(OCCS(C)(=O)=O)cn1)C(C)c1cc(C(F)(F)F)cc(C(F)(F)F)c1 (centres unmarked) [Example 16, N-{1-[3,5-bis(trifluoromethyl)phenyl]ethyl}-N-({2-[(cyclopentylmethyl)(ethyl)amino]-4-(trifluoromethyl)phenyl}methyl)-5-[2-(methylsulfonyl)ethoxy]pyrimidin-2-amine] | 150
7 | CCN(CC1CCCC1)c1ccc(C)cc1CN(c1ncc(OCCS(C)(=O)=O)cn1)C(C)c1cc(C(F)(F)F)cc(C(F)(F)F)c1 (centres unmarked) [Example 9, N-{1-[3,5-bis(trifluoromethyl)phenyl]ethyl}-N-({2-[(cyclopentylmethyl)(ethyl)amino]-5-methylphenyl}methyl)-5-[2-(methylsulfonyl)ethoxy]pyrimidin-2-amine] | 70
8 | CCN(C[C@H]1CC[C@H](CC(=O)O)CC1)c1ccc(C(F)(F)F)cc1CN(c1ncc(OCCS(C)(=O)=O)cn1)C(C)c1cc(C(F)(F)F)cc(C(F)(F)F)c1 (stereo partly drawn) [Example 45, trans-{4-[({2-[({1-[3,5-bis(trifluoromethyl)phenyl]ethyl}{5-[2-(methylsulfonyl)ethoxy]pyrimidin-2-yl}amino)methyl]-4-(trifluoromethyl)phenyl}(ethyl)amino)methyl]cyclohexyl}acetic acid] | 120
9 | CCN(CC1CCCC1)c1ccc(C(F)(F)F)cc1CN(c1ncc(OCCS(C)(=O)=O)cn1)C(C)c1cc(C#N)cc(C(F)(F)F)c1 (centres unmarked) [Example 32, 3-{1-[({2-[(cyclopentylmethyl)(ethyl)amino]-5-trifluoromethylphenyl}methyl){5-[2-(methylsulfonyl)ethoxy]pyrimidin-2-yl}amino]ethyl}-5-(trifluoromethyl)benzonitrile] | 30
10 | CCN(CC1CCCC1)c1cc(F)c(F)cc1CN(c1ncc(OCCS(C)(=O)=O)cn1)C(C)c1cc(C(F)(F)F)cc(C(F)(F)F)c1 (centres unmarked) [Example 22, N-{1-[3,5-bis(trifluoromethyl)phenyl]ethyl}-N-({2-[(cyclopentylmethyl)(ethyl)amino]-4,5-difluorophenyl}methyl)-5-[2-(methylsulfonyl)ethoxy]pyrimidin-2-amine] | 500
11 | CCN(CC1CCCC1)c1cc(Cl)ccc1CN(c1ncc(OCCS(C)(=O)=O)cn1)C(C)c1cc(C(F)(F)F)cc(C(F)(F)F)c1 (centres unmarked) [Example 24, N-{1-[3,5-bis(trifluoromethyl)phenyl]ethyl}-N-({4-chloro-2-[(cyclopentylmethyl)(ethyl)amino]phenyl}methyl)-5-[2-(methylsulfonyl)ethoxy]pyrimidin-2-amine] | 300
12 | CCN(CC1CCCC1)c1cc(Br)ccc1CN(c1ncc(OCCS(C)(=O)=O)cn1)C(C)c1cc(C(F)(F)F)cc(C(F)(F)F)c1 (centres unmarked) [Example 28, N-{1-[3,5-bis(trifluoromethyl)phenyl]ethyl}-N-({4-bromo-2-[(cyclopentylmethyl)(ethyl)amino]phenyl}methyl)-5-[2-(methylsulfonyl)ethoxy]pyrimidin-2-amine] | 200
13 | CCN(CC1CCCC1)c1ccc(C(F)(F)F)cc1CN(c1ncc(OCC[S+](C)[O-])cn1)C(C)c1cc(C(F)(F)F)cc(C(F)(F)F)c1 (centres unmarked) [Example 2, N-{1-[3,5-bis(trifluoromethyl)phenyl]ethyl}-N-({2-[(cyclopentylmethyl)(ethyl)amino]-5-(trifluoromethyl)phenyl}methyl)-5-[2-(methylsulfinyl)ethoxy]pyrimidin-2-amine] | 40
14 | CCN(CC1CCCC1)c1ccccc1CN(c1ncc(OCCS(C)(=O)=O)cn1)C(C)c1cc(C(F)(F)F)cc(C(F)(F)F)c1 (centres unmarked) [Example 20, N-{1-[3,5-bis(trifluoromethyl)phenyl]ethyl}-N-({2-[(cyclopentylmethyl)(ethyl)amino]phenyl}methyl)-5-[2-(methylsulfonyl)ethoxy]pyrimidin-2-amine] | 800
15 | CCN(CC1CCCC1)c1ccc(Br)cc1CN(c1ncc(OCCS(C)(=O)=O)cn1)C(C)c1cc(C(F)(F)F)cc(C(F)(F)F)c1 (centres unmarked) [Example 30, N-{1-[3,5-bis(trifluoromethyl)phenyl]ethyl}-N-({5-bromo-2-[(cyclopentylmethyl)(ethyl)amino]phenyl}methyl)-5-[2-(methylsulfonyl)ethoxy]pyrimidin-2-amine] | 45
16 | CCN(CC1CCCC1)c1c(F)cc(F)cc1CN(c1ncc(OCCS(C)(=O)=O)cn1)C(C)c1cc(C(F)(F)F)cc(C(F)(F)F)c1 (centres unmarked) [Example 7, N-{1-[3,5-bis(trifluoromethyl)phenyl]ethyl}-N-({2-[(cyclopentylmethyl)(ethyl)amino]-3,5-difluorophenyl}methyl)-5-[2-(methylsulfonyl)ethoxy]pyrimidin-2-amine] | 300
17 | CCN(CC1CCCC1)c1ccc(OC)cc1CN(c1ncc(OCCS(C)(=O)=O)cn1)C(C)c1cc(C(F)(F)F)cc(C(F)(F)F)c1 (centres unmarked) [Example 5, N-{1-[3,5-bis(trifluoromethyl)phenyl]ethyl}-N-({2-[(cyclopentylmethyl)(ethyl)amino]-5-methoxyphenyl}methyl)-5-[2-(methylsulfonyl)ethoxy]pyrimidin-2-amine] | 50
